Reference: patent US20220062218A1, “COMPOSITIONS AND METHODS FOR TREATING DIABETES” (ENZYCHEM LIFESCIENCES, priority 2019, published 2022)
Entries after “also recorded” stand apart in the source; their conditions may differ.

Experiments:
INS-1 cells [1] = assay: STZ-induced cell apoptosis in INS-1 cells, flow cytometry with annexin-V and 7-AAD; format: cell-based, rat; details: STZ-treated cells
Procedure: The effect of PLAG on STZ-induced cell apoptosis was analyzed using flow cytometry using annexin-V and 7-AAD dye (FIGS. 2A and 2B). Cells were collected by trypsinization and washed with PBS. For cell apoptosis analyses, INS-1 cells were incubated with annexin V (BD Biosciences, Franklin Lakes, N.J., USA) for 10 min at room temperature, and stained with 7-AAD (BD Biosciences). Analysis was performed using a BD FACSVerse flow cytometer (BD Biosciences). The annexin-V and 7-AAD dyes are dyes that label apoptosis, one kind of cell death.
After treatment with PLAG and PLH(1-palmitoyl-2-linoleoyl-3-hydroxyl-rac-glycerol), apoptosis, intracellular ROS generation and glucose uptake were analyzed by flow cytometry (FIG. 7-B to 7-E). In addition, expression of GLUT2 in membrane fractions was analyzed by Western blotting (FIG.7-F). Data are presented as mean ±SD. ***P<0.001 vs. control, #P<0.05, ##P<0.005 vs. STZ. N.S.: No significance.
(§1) INS-1 rat insulinoma pancreas beta cells were cultured in RPMI-1640 medium (Welgene, Gyeongsangbuk-do, Republic of Korea) containing 10% fetal bovine serum (Tissue Culture Biologicals, Long Beach, Calif., USA), 50 μM β-mercaptoethanol, 100 units/mL penicillin, and 100 μg/mL streptomycin (Antibiotic-Antimycotic Solution, Welgene). The cells were grown in a humidified atmosphere with 5% CO2 at 37° C. Chemicals and reagents
Cells were collected by trypsinization and washed with ice-cold PBS. For cell apoptosis analyses, INS-1 cells were incubated with annexin V (BD Biosciences, Franklin Lakes, N.J., USA) for 10 min at room temperature, and stained with 7-AAD (BD Biosciences). For intracellular reactive oxygen species (ROS) analyses, cells were incubated with 2 μM of DCFH-DA (2′,7′-dichlorodihydrofluorescein diacetate, Invitrogen, Carlsbad, Calif., USA) for 30 min at 37° C. The analysis was performed using a BD FACS Verse flow cytometer (BD Biosciences).

[2] = tested on: apoptosis-related proteins BCL-2, BAX, cytochrome c, caspase-3; assay: Expression of apoptosis-related proteins (BCL-2, BAX, cytochrome c, caspase-3) by western blotting in STZ-treated cells; format: cell-based, rat
Procedure: (§2) In addition, to perform a special protein detection test (Western Blotting), cells were lysed by RIPA buffer (LPS Solution, Daejeon, Korea) supplemented with protease and phosphatase inhibitors (Thermo Scientific, Waltham, Mass., USA). Proteins were separated on 12% sodium dodecyl sulfate-polyacrylamide gels and transferred to polyvinylidene difluoride membranes (EMD Millipore, Darmstadt, Germany). The membranes were blocked with 5% BSA for 1 h and incubated with primary antibodies to GLUT2 (bs-0351r, Bioss, Woburn, Mass., USA), RAC1 (03589, EMD Millipore), BAX (B51030, Bioworld Tech, St. Louis Park, Minn., USA), BCL-2 (B51031, Bioworld), Cytochrome c (#4272, Cell Signaling Technology, Danvers, Mass., USA), Caspase-3 (#9662, Cell Signaling Technology), and Na+-K+ ATPase (#3010S, Cell Signaling Technology). After three washes in PBST, membranes were incubated with HRP-conjugated secondary antibodies (Enzo Life Sciences, dilution 1:5,000) for 1 h at room temperature. Protein bands were detected using ECL reagent (Thermo Scientific) and then visualized on films. Expression of apoptosis-related proteins like Bcl-2, Bax, cytochrome c, caspase-3 was analyzed by western blotting, Bax/Bcl-2 ratio is represented by a bar graph (FIG. 2-C). Data are presented as mean ±SD (***P<0.001 vs. control, #P<0.05, ##P<0.005 vs. STZ).

[3] = tested on: Streptozotocin (STZ)-induced diabetes model; assay: Streptozotocin (STZ)-induced diabetes model in mice: blood glucose, serum insulin, body weight, pancreas histopathology; format: in vivo
Procedure: In order to confirm the efficacy of 1-palmitoyl-2-linoleoyl-3- acetyl-racglycerol (EC-18 or PLAG) in the treatment of diabetes disease, Streptozotocin (STZ)-induced diabetes model were used in the experiments.
Mice were divided into four groups (control group, STZ-only treatment group, PLAG-co-treatment group, and PLAG-post-treatment group). After a 16-h fast, the three treated groups except the control group were injected intraperitoneally with STZ (200 mg/kg BW) prepared fresh in citrate buffer, wherein BW means body weight. STZ-only treatment mice received no additional treatment.
On the same day, PLAG-co-treatment group mice began treatment with PLAG (250 mg/kg, p.o.) once daily for 3 consecutive days. The PLAG-post-treatment group received PLAG (250 mg/kg, p.o.) for 2 consecutive days beginning 1 day after STZ injection. As the PLAG, 1-palmitoyl-2-linoleoyl-3-acetyl-rac-glycerol represented by Formula 2 was used.
Blood was collected via the retro-orbital plexus, and blood glucose levels were monitored during the experiment. Blood glucose was measured using the Accu-Chek glucometer (Roche, Seoul, Republic of Korea). FIG. 1A is a chart measuring the blood glucose of the control group and the experimental groups on the first day.
All mice were sacrificed on day 4, last day of experiment (day 4), serum insulin was measured (FIG. 1B). Tissues of the pancreatic tissue of the control group and the experimental group were collected and fixed in 10% formalin for further analysis. During the experiment, the weight change of the control group and the experimental groups was measured (FIG. 1C).
Pancreas tissues were fixed in 10% formalin, embedded in paraffin, and sectioned at a 4 μm thickness. For immunohistochemistry, sections were deparaffinized and […] using xylene and a graded ethanol series Staining was performed using the Real EnVision Detection System Peroxidase-DAB kit (Dako, Glostrup, Denmark) following the manufacturer's instructions, and then observed under a light microscope (Olympus, Tokyo, Japan) (FIG. 1D, 400 magnification).

RAC1 = RAC1 expression in membrane fractions of STZ-treated cells by western blotting; format: cell-based, rat; details: time course
Procedure: as §2, with “STZ). […]” for “STZ).”

INS-1 cells [4] = assay: High glucose (HG)-induced cell apoptosis in INS-1 cells, flow cytometry; format: cell-based, rat; details: pre-treated with 50 or 100 μg/mL of PLAG for 1 h, then 30 mM HG for 48 h
Procedure: Effect of PLAG on pancreatic beta cell protection was investigated after HG-treatment. HG-induced cell apoptosis was analyzed using flow cytometry. INS-1 cells were pre-treated with 50 or 100 μg/mL of PLAG for lh, and then treated with 30 mM of HG for 48h. When INS-1 cells were maintained in a high glucose conditions, there was a significant increase in cell apoptosis compared to control cells.
as §1
PLAG was obtained from Enzychem Lifesciences (Seoul, Republic of Korea). D-glucose was purchased from Sigma-Aldrich (St. Louis, Mo., USA). PLAG was dissolved in ethanol and the final working concentration was 0.1% (v/v). D-glucose was dissolved in cell culture medium.
Cells were collected by trypsinization and washed with ice-cold PBS. For cell apoptosis analyses, INS-1 cells were incubated with annexin V (BD Biosciences, Franklin Lakes, N.J., USA) for 10 min at room temperature, and stained with 7-AAD (BD Biosciences). […]

Which results are given for `CCCCC/C=C\C/C=C\CCCCCCCC(=O)OC(COC(C)=O)COC(=O)CCCCCCCCCCCCCCC` (racemic) [PLAG, 1-palmitoyl-2-linoleoyl-3-acetyl-rac-glycerol]?
apoptosis (INS-1 cells [1]; 10 μg/mL of PLAG): ~50%; apoptosis (INS-1 cells [1]; 100 μg/mL PLAG): ~30%; decrease of cell apoptosis, PLAG vs PLH (INS-1 cells [1]; Example 8): more effective than PLH; expression of anti-apoptotic protein BCL-2 ([2]; decreased by STZ): recovered by PLAG; expression of apoptosis-related proteins BAX, cytochrome c, and caspase-3 ([2]; increased by STZ): attenuated by PLAG addition; serum insulin (insulin secretion) ([3]; day 4, STZ-only group compared with control and PLAG groups (250 mg/kg p.o.)): Insulin secretion of the STZ-only treatment group is significantly lower than the control and other experimental groups; body weight change ([3]; during the experiment, STZ-only group compared with control and PLAG groups (250 mg/kg p.o.)): STZ-only treatment group has a greater weight change than the control and other experimental groups; blood glucose ([3]; first day, PLAG-co-treatment group, 250 mg/kg p.o. once daily, STZ 200 mg/kg i.p., vs control group): did not have a significant increase in blood glucose; expression of RAC1 in membrane fractions (RAC1): attenuated after a slight increase in 15 min; HG-induced cell apoptosis (INS-1 cells [4]): a decreased rate of apoptosis was observed; also recorded: dose-dependently decreased
